Results as given in patent US20140194473A1, “IMIDAZOLE FUNGICIDES” (E I Du Pont De Nemours And Company, priority 2013, published 2014).

Assays:
Type in all cases: in vivo
Alternaria solani = assay: Test B: tomato early blight, preventive spray on tomato seedlings; conditions: 40 ppm test suspension sprayed to run-off on tomato seedlings, inoculated the following day; 100 = 100% disease control, 0 = no control; triplicate, averaged
Procedure: (§1) General protocol for preparing test suspensions for Tests A-G: the test compounds were first dissolved in acetone in an amount equal to 3% of the final volume and then suspended at the desired concentration (in ppm) in acetone and purified water (50/50 mix by volume) containing 250 ppm of the surfactant Trem® 014 (polyhydric alcohol esters). The resulting test suspensions were then used in Tests A-G. Each test was conducted in triplicate, and the results were averaged. Spraying a 40 ppm test suspension to the point of run-off on the test plants was the equivalent of a rate of about 160 g/ha. Unless otherwise indicated, the rating values indicate a 40 ppm test suspension was used.
(§2) The test suspension was sprayed to the point of run-off on tomato seedlings. The following day the seedlings were inoculated with a spore suspension of Alternaria solani (the causal agent of tomato early blight) and incubated in a saturated atmosphere at 27° C. for 48 h, and then moved to a growth chamber at 20° C. for 5 days, after which time visual disease ratings were made.
(§3) Results for Tests A-G are given in Table A. In the Table, a rating of 100 indicates 100% disease control and a rating of 0 indicates no disease control (relative to the controls). A hyphen (-) indicates no test results.

Septoria nodorum = assay: Test C: Septoria glume blotch, preventive spray on wheat seedlings; conditions: 40 ppm test suspension sprayed to run-off on wheat seedlings, inoculated the following day; 100 = 100% disease control, 0 = no control; triplicate, averaged
Procedure: as §1
as §2, with “wheat” for “tomato”, “Septoria nodorum” for “Alternaria solani”, “Septoria glume blotch)” for “tomato early blight)”, “24°” for “27°”, “9” for “5”
as §3

[1] = test system: Blumeria graminis f. sp. tritici; assay: Test G: wheat powdery mildew, preventive spray on wheat seedlings; conditions: 40 ppm test suspension sprayed to run-off on wheat seedlings, inoculated with spore dust the following day; 100 = 100% disease control, 0 = no control; triplicate, averaged
Procedure: as §1
The test suspension was sprayed to the point of run-off on wheat seedlings. The following day the seedlings were inoculated with a spore dust of Blumeria graminis f. sp. tritici (also known as Erysiphe graminis f. sp. tritici, the causal agent of wheat powdery mildew) and incubated in a growth chamber at 20° C. for 8 days, after which time visual disease ratings were made.
as §3

Botrytis cinerea = assay: Test A: tomato Botrytis, preventive spray on tomato seedlings; conditions: 40 ppm test suspension sprayed to run-off on tomato seedlings, inoculated the following day; 100 = 100% disease control, 0 = no control; triplicate, averaged
Procedure: as §1
as §2, with “Botrytis cinerea” for “Alternaria solani”, “Botrytis)” for “early blight)”, “in” for “in a”, “20°” for “27°”, “24°” for “20°”, “3 additional” for “5”
as §3

[2] = test system: Puccinia recondite f. sp. tritici; assay: Test F: wheat leaf rust, preventive spray on wheat seedlings; conditions: 40 ppm test suspension sprayed to run-off on wheat seedlings, inoculated the following day; 100 = 100% disease control, 0 = no control; triplicate, averaged
Procedure: as §1
as §2, with “wheat” for “tomato”, “Puccinia recondite f. sp. tritici” for “Alternaria solani”, “wheat leaf rust)” for “tomato early blight)”, “20°” for “27°”, “24” for “48”, “6” for “5”
as §3

Septoria tritici = assay: Test D: wheat leaf blotch, preventive spray on wheat seedlings; conditions: 40 ppm test suspension sprayed to run-off on wheat seedlings, inoculated the following day; 100 = 100% disease control, 0 = no control; triplicate, averaged
Procedure: as §1
The test suspension was sprayed to the point of run-off on wheat seedlings. The following day the seedlings were inoculated with a spore suspension of Septoria tritici (the causal agent of wheat leaf blotch) and incubated in saturated atmosphere at 24° C. for 48 h. and then the seedlings were moved to a growth chamber at 20° C. for 19 additional days, after which time visual disease ratings were made.
as §3

[3] = test system: Puccinia recondite f. sp. tritici; assay: Test E: wheat leaf rust, spray after inoculation of wheat seedlings; conditions: 40 ppm test suspension sprayed on wheat seedlings after inoculation (24 h incubation, then 2 days in growth chamber); 100 = 100% disease control, 0 = no control; triplicate, averaged
Procedure: as §1
Wheat seedlings were inoculated with a spore suspension of Puccinia recondite f. sp. tritici (the causal agent of wheat leaf rust) and incubated in a saturated atmosphere at 20° C. for 24 h, and then moved to a growth chamber at 20° C. for 2 days. After 2 days, the test suspension was sprayed to the point of run-off on the wheat seedlings, and then the seedlings were moved back to the growth chamber at 20° C. for 4 days. Upon removal, visual disease ratings were made.
as §3

Row | SMILES | Test B rating (disease control) (Alternaria solani) [%] | Test C rating (disease control) (Septoria nodorum) [%] | Test G rating (disease control) [1] [%] | Test A rating (disease control) (Botrytis cinerea) [%] | Test F rating (disease control) [2] [%] | Test D rating (disease control) (Septoria tritici) [%] | Test E rating (disease control) [3] [%]
1 | Cc1ncn(Nc2ccc(F)cc2Cl)c1-c1ccc(F)cc1F [Compound 1, N-(2-chloro-4-fluorophenyl)-5-(2,4-difluorophenyl)-4-methyl-1H-imidazol-1-amine] | 70 | 0 | 91 | 100 | 95 | 92 | 
2 | Cc1nc(Br)n(Nc2ccc(F)cc2Cl)c1-c1ccc(F)cc1F [Compound 2, 2-bromo-N-(2-chloro-4-fluorophenyl)-5-(2,4-difluorophenyl)-4-methyl-1H-imidazol-1-amine] | 0 | 60 | 100 | 99 | 99 | 100 | 30
3 | Cc1ncn(Nc2ccc(Cl)cc2Cl)c1-c1ccc(F)cc1 [Compound 3] | 0 | 0 | 0 |  | 41 | 99 | 0
4 | Cc1nc(Br)n(Nc2ccc(Cl)cc2Cl)c1-c1ccc(Cl)cc1 [Compound 5] | 0 | 0 | 0 |  | 9 | 99 | 0
5 | Cc1nc(Br)n(Nc2ccc(Cl)cc2Cl)c1-c1ccc(F)cc1 [Compound 6] | 0 | 0 | 0 | 16 | 55 | 93 | 
6 | Cc1ncn(Nc2ccc(Cl)cc2Cl)c1-c1ccc(F)cc1F [Compound 7, 5-(2,4-difluorophenyl)-N-(2,4-dichlorophenyl)-4-methyl-1H-imidazol-1-amine] | 0 | 0 | 91 | 100 | 97 | 100 | 0
7 | Cc1nc(Br)n(Nc2c(Cl)cc(Cl)cc2Br)c1-c1ccc(F)cc1F [Compound 8, N-(2-bromo-4,6-dichlorophenyl)-4-methyl-2-bromo-5-(2,4-difluorophenyl)-1H-imidazol-1-amine] | 9 | 0 | 98 | 99 | 100 | 100 | 19
8 | Cc1ncn(Nc2ccc(F)cc2F)c1-c1ccc(F)cc1F [Compound 9] | 0 | 0 | 0 | 87 | 14 | 79 | 36
9 | Cc1nc(Br)n(Nc2ccc(F)cc2F)c1-c1ccc(F)cc1F [Compound 10, 2-bromo-N,5-bis(2,4-difluorophenyl)-4-methyl-1H-imidazol-1-amine] | 40 | 0 | 96 | 99 | 100 | 100 | 7
10 | Fc1cc(F)c(Nn2c(Cl)nc(Cl)c2-c2ccc(Cl)cc2Cl)c(Cl)c1 [Compound 11, N-(2-chloro-4,6-difluorophenyl)-2,4-dichloro-5-(2,4-dichlorophenyl)-1H-imidazol-1-amine] | 0 | 0 | 52 | 0 | 0 | 0 | 0
11 | Fc1ccc(-c2c(C(Cl)Cl)nc(Cl)n2Nc2ccc(F)cc2Cl)c(F)c1 [Compound 12] | 0 | 0 | 73 | 0 | 86 | 89 | 0
12 | Fc1ccc(-c2c(CCl)nc(Cl)n2Nc2ccc(F)cc2Cl)c(F)c1 [Compound 13] | 0 | 0 | 98 | 66 | 95 | 97 | 0
13 | Fc1ccc(Nn2c(Br)nc(Br)c2-c2ccc(Cl)cc2Cl)c(F)c1 [Compound 14] | 0 | 0 | 0 | 0 | 0 | 0 | 0
